The values below come from PubChem BioAssay AID248 (DTP/NCI, 2004).

Values joined by “and” are separate entries in the source; they are usually repeats but may differ in a detail not shown here. Identical values can stand only once. Inconclusive results and toxic doses are left out.

For the experiment, the system named is L1210 leukemia ip in BDF1 mice, survival T/C. The experiment can be described thus: NCI In Vivo Anticancer Drug Screen. Data for tumor model L1210 Leukemia (intraperitoneal) in B6D2F1 (BDF1) mice. To be noted: endpoint: mean survival time, higher = longer survival. The procedure, abridged: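 Value reflects the ratio of survival in compound-treated mice to survival in vehicle-treated controls, with both groups carrying the same transplanted tumor.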

Where [1] appears, read: dose: 100.0 mg/kg/injection, schedule: Q01DX001 (ip), vehicle: carboxymethylcellulose (CMC).
Where [2] appears, read: dose: 100.0 mg/kg/injection, schedule: Q04DX003 (ip), vehicle: Klucel (hydroxypropylcellulose) (HPC).
Where [3] appears, read: dose: 200.0 mg/kg/injection, schedule: Q04DX003 (ip), vehicle: Klucel (hydroxypropylcellulose) (HPC).
Where [4] appears, read: dose: 400.0 mg/kg/injection, schedule: Q04DX003 (ip), vehicle: Klucel (hydroxypropylcellulose) (HPC).
[5] abbreviates: dose: 50.0 mg/kg/injection, schedule: Q01DX001 (ip), vehicle: saline.
Setting [6] is: dose: 100.0 mg/kg/injection, schedule: Q01DX001 (ip), vehicle: saline.
Setting [7] is: dose: 200.0 mg/kg/injection, schedule: Q01DX001 (ip), vehicle: saline.
The mark [8] stands for this setting: dose: 400.0 mg/kg/injection, schedule: Q01DX001 (ip), vehicle: saline.
The mark [9] stands for this setting: dose: 100.0 mg/kg/injection, schedule: Q04DX003 (ip), vehicle: saline with Tween-80.
Where [10] appears, read: dose: 200.0 mg/kg/injection, schedule: Q04DX003 (ip), vehicle: saline with Tween-80.
The mark [11] stands for this setting: dose: 400.0 mg/kg/injection, schedule: Q04DX003 (ip), vehicle: saline with Tween-80.

In the case of `Cc1c(CNc2ccc(C(=O)NC(CC(=O)O)C(=O)O)cc2)ccc2nc(N)nc(N)c12` (stereo unspecified), the T/C runs as follows: (dose: 0.05 mg/kg/injection, schedule: Q01DX009 (ip), vehicle: other) 122 % of control; (dose: 0.06 mg/kg/injection, schedule: Q01DX009 (ip), vehicle: other) 117 % of control; (dose: 0.1 mg/kg/injection, schedule: Q01DX009 (ip), vehicle: carboxymethylcellulose (CMC)) 94 % of control; (dose: 0.1 mg/kg/injection, schedule: Q01DX009 (ip), vehicle: other) 152 % of control; (dose: 0.19 mg/kg/injection, schedule: Q01DX009 (ip), vehicle: other) 115 % of control; (dose: 0.19 mg/kg/injection, schedule: Q01DX009 (ip), vehicle: water) 175 % of control. For the same compound, the T/C reads like this: (dose: 0.25 mg/kg/injection, schedule: Q01DX009 (ip), vehicle: other) 101 % of control; (dose: 0.38 mg/kg/injection, schedule: Q01DX009 (ip), vehicle: other) 102 % of control; (dose: 0.38 mg/kg/injection, schedule: Q01DX009 (ip), vehicle: water) 116 % of control; (dose: 0.5 mg/kg/injection, schedule: Q02DX005 (ip), vehicle: water) 205 % of control; (dose: 0.75 mg/kg/injection, schedule: Q01DX009 (ip), vehicle: carboxymethylcellulose (CMC)) 91 % of control; (dose: 0.75 mg/kg/injection, schedule: Q01DX009 (ip), vehicle: water) 94 % of control. Further, the T/C reads like this: (dose: 1.0 mg/kg/injection, schedule: Q02DX005 (ip), vehicle: water) 158 % of control; (dose: 1.5 mg/kg/injection, schedule: Q01DX009 (ip), vehicle: water) 98 % of control; (dose: 1.56 mg/kg/injection, schedule: Q01DX001 (ip), vehicle: other) 124 % of control; (dose: 1.69 mg/kg/injection, schedule: Q04DX003 (ip), vehicle: water) 167 % of control; (dose: 3.0 mg/kg/injection, schedule: Q01DX009 (ip), vehicle: water) 97 % of control; (dose: 3.38 mg/kg/injection, schedule: Q04DX003 (ip), vehicle: water) 173 % of control. Besides, the T/C is, setting by setting: (dose: 4.0 mg/kg/injection, schedule: Q02DX005 (ip), vehicle: water) 118 % of control; (dose: 6.75 mg/kg/injection, schedule: Q04DX003 (ip), vehicle: water) 195 % of control; (dose: 8.0 mg/kg/injection, schedule: Q02DX005 (ip), vehicle: water) 89 % of control; (dose: 12.5 mg/kg/injection, schedule: Q01DX001 (ip), vehicle: other) 159 % of control; (dose: 13.5 mg/kg/injection, schedule: Q04DX003 (ip), vehicle: water) 224 % of control; (dose: 25.0 mg/kg/injection, schedule: Q01DX001 (ip), vehicle: carboxymethylcellulose (CMC)) 98 % of control. For the same compound, the T/C was 98 % of control (dose: 25.0 mg/kg/injection, schedule: Q01DX001 (ip), vehicle: other); 119 % of control (dose: 27.0 mg/kg/injection, schedule: Q04DX003 (ip), vehicle: water); 155 % of control (dose: 50.0 mg/kg/injection, schedule: Q01DX001 (ip), vehicle: carboxymethylcellulose (CMC)); 158 % of control under setting [1].

Consider `COc1ccc(S(=O)(=O)NC(=O)NCC=C(C)C)cc1`, for which the T/C (dose: 50.0 mg/kg/injection, schedule: Q01DX009 (ip), vehicle: Klucel (hydroxypropylcellulose) (HPC)) is 98 % of control; the T/C (dose: 100.0 mg/kg/injection, schedule: Q01DX009 (ip), vehicle: Klucel (hydroxypropylcellulose) (HPC)) is 98 % of control; the T/C under setting [2] is 93 % of control; the T/C (dose: 200.0 mg/kg/injection, schedule: Q01DX009 (ip), vehicle: Klucel (hydroxypropylcellulose) (HPC)) was 96 % of control; the T/C under setting [3] is 103 % of control; the T/C under setting [4] is 94 % of control.

As to `CC(=O)CC(=O)CC(C)C`, the T/C was 105 % of control under setting [5], 103 % of control under setting [6], 100 % of control under setting [7] and 94 % of control under setting [8].

Turning to `S=C(Cc1ccccc1)NC1CCCCC1`, the T/C runs as follows: under setting [2], 103 % of control; under setting [3], 101 % of control; under setting [4], 95 % of control.

On to `Cc1ccc(-c2c(O)c(Br)c(-c3ccc(C)cc3C)c(O)c2Br)c(C)c1`, for which the T/C was 98 % of control under setting [9], 93 % of control under setting [10] and 93 % of control under setting [11].

On to `O=C(NCCCCCCCNC(=O)Nc1ccc(C2=NCCCN2)cc1)Nc1ccc(C2=NCCCN2)cc1`, for which the T/C runs as follows: (dose: 3.75 mg/kg/injection, schedule: Q01DX Z (ip), vehicle: carboxymethylcellulose (CMC)) 98 % of control; (dose: 7.5 mg/kg/injection, schedule: Q01DX Z (ip), vehicle: carboxymethylcellulose (CMC)) 102 % of control; (dose: 15.0 mg/kg/injection, schedule: Q01DX Z (ip), vehicle: carboxymethylcellulose (CMC)) 120 % of control; (dose: 30.0 mg/kg/injection, schedule: Q01DX Z (ip), vehicle: carboxymethylcellulose (CMC)) 89 % of control.

As to `[Si]C1CCCCC1`, the T/C is, setting by setting: (dose: 100.0 mg/kg/injection, schedule: Q01DX001 (ip), vehicle: saline with Tween-80) 96 % of control; (dose: 200.0 mg/kg/injection, schedule: Q01DX001 (ip), vehicle: saline with Tween-80) 89 % of control; (dose: 400.0 mg/kg/injection, schedule: Q01DX001 (ip), vehicle: saline with Tween-80) 96 % of control.

In the case of `Cc1c2ccccc2nc(CNC2CCCCC2)[n+]1[O-]`, the T/C was 98 % of control (dose: 12.5 mg/kg/injection, schedule: Q01DX001 (ip), vehicle: saline); 97 % of control (dose: 25.0 mg/kg/injection, schedule: Q01DX001 (ip), vehicle: saline); 90 % of control under setting [5].

With `NC(=O)NN=C1CCCCCCCCCCC1`, the T/C reads like this: (dose: 100.0 mg/kg/injection, schedule: Q01DX001 (ip), vehicle: other) 95 % of control; under setting [9], 97 % of control; (dose: 200.0 mg/kg/injection, schedule: Q01DX001 (ip), vehicle: other) 95 % of control; under setting [10], 105 % of control; (dose: 400.0 mg/kg/injection, schedule: Q01DX001 (ip), vehicle: other) 103 % of control; under setting [11], 94 % of control.

Turning to `CS(=O)(=O)C(=O)O`, the T/C is 96 % of control under setting [6], 101 % of control under setting [7] and 98 % of control under setting [8].

Regarding `CC(C)(C)c1ccc(OS(=O)(=O)c2cccc([N+](=O)[O-])c2)cc1`, the T/C was 104 % of control under setting [9], 99 % of control under setting [10] and 106 % of control under setting [11].

For the compound `CC1(C)N=C(N)N=C(N)N1c1cccc(CC(C(=O)Nc2ccc(S(=O)(=O)F)cc2)c2ccccc2)c1` (stereo unspecified), the T/C was 95 % of control (dose: 25.0 mg/kg/injection, schedule: Q01DX001 (ip), vehicle: Klucel (hydroxypropylcellulose) (HPC)); 95 % of control (dose: 50.0 mg/kg/injection, schedule: Q01DX001 (ip), vehicle: Klucel (hydroxypropylcellulose) (HPC)); 94 % of control and 95 % of control (dose: 100.0 mg/kg/injection, schedule: Q01DX001 (ip), vehicle: Klucel (hydroxypropylcellulose) (HPC)); 101 % of control (dose: 200.0 mg/kg/injection, schedule: Q01DX001 (ip), vehicle: Klucel (hydroxypropylcellulose) (HPC)).

Turning to `CC/C(C)=N/NS(C)(=O)=O`, the T/C is 103 % of control (dose: 75.0 mg/kg/injection, schedule: Q01DX001 (ip), vehicle: other) and 97 % of control (dose: 150.0 mg/kg/injection, schedule: Q01DX001 (ip), vehicle: other).

For `O=C(NO)Nc1cccc(Cl)c1`, the T/C was 103 % of control under setting [1]; 97 % of control (dose: 200.0 mg/kg/injection, schedule: Q01DX001 (ip), vehicle: carboxymethylcellulose (CMC)); 100 % of control (dose: 400.0 mg/kg/injection, schedule: Q01DX001 (ip), vehicle: carboxymethylcellulose (CMC)).

For the compound `COc1cc(NC(=O)Nc2ccccc2Cl)c(OC)cc1Cl`, the T/C (dose: 100.0 mg/kg/injection, schedule: Q04DX002 (ip), vehicle: saline with Tween-80) was 93 % of control.
